ChEMBL document CHEMBL1147101, “Development and persistence of antimicrobial resistance in Pseudomonas aeruginosa: a longitudinal observation in mechanically ventilated patients” (Antimicrob Agents Chemother, 2007)
Activity calls are given as the source filed them. The rule behind the calls is not given here.

Columns and labels:
Assay type in all cases: functional, organism-based
Conditions in all cases: Trachea
[1] = system: Pseudomonas aeruginosa; assay: Antimicrobial activity against Pseudomonas aeruginosa 15H5 tracheal isolates from mechanically ventilated chronic respiratory insufficiency patient
[2] = system: Pseudomonas aeruginosa; assay: Antimicrobial activity against Pseudomonas aeruginosa 2A7 tracheal isolates from mechanically ventilated tuberculosis patient
[3] = system: Pseudomonas aeruginosa; assay: Antimicrobial activity against Pseudomonas aeruginosa 2A5 tracheal isolates from mechanically ventilated tuberculosis patient
[4] = system: Pseudomonas aeruginosa; assay: Antimicrobial activity against Pseudomonas aeruginosa 9B2 tracheal isolates from mechanically ventilated chronic respiratory insufficiency patient
[5] = system: Pseudomonas aeruginosa; assay: Antimicrobial activity against Pseudomonas aeruginosa 22D9 tracheal isolates from mechanically ventilated chronic respiratory insufficiency patient
[6] = system: Pseudomonas aeruginosa; assay: Antimicrobial activity against Pseudomonas aeruginosa 19C7 tracheal isolates from mechanically ventilated chronic respiratory insufficiency patient
[7] = system: Pseudomonas aeruginosa; assay: Antimicrobial activity against Pseudomonas aeruginosa 8A12 tracheal isolates from mechanically ventilated chronic respiratory insufficiency patient
[8] = system: Pseudomonas aeruginosa; assay: Antimicrobial activity against Pseudomonas aeruginosa 16D5 tracheal isolates from mechanically ventilated chronic respiratory insufficiency patient
[9] = system: Pseudomonas aeruginosa; assay: Antimicrobial activity against Pseudomonas aeruginosa 8A2 tracheal isolates from mechanically ventilated chronic respiratory insufficiency patient
[10] = system: Pseudomonas aeruginosa; assay: Antimicrobial activity against Pseudomonas aeruginosa 65.33-1 tracheal isolates from mechanically ventilated tuberculosis patient
[11] = system: Pseudomonas aeruginosa; assay: Antimicrobial activity against Pseudomonas aeruginosa 3E2 tracheal isolates from mechanically ventilated chronic respiratory insufficiency patient
[12] = system: Pseudomonas aeruginosa; assay: Antimicrobial activity against Pseudomonas aeruginosa 8B11 tracheal isolates from mechanically ventilated chronic respiratory insufficiency patient
[13] = system: Pseudomonas aeruginosa; assay: Antimicrobial activity against Pseudomonas aeruginosa 19E9 tracheal isolates from mechanically ventilated chronic respiratory insufficiency patient
[14] = system: Pseudomonas aeruginosa; assay: Antimicrobial activity against Pseudomonas aeruginosa 5F8 tracheal isolates from mechanically ventilated chronic respiratory insufficiency patient
[15] = system: Pseudomonas aeruginosa; assay: Antimicrobial activity against Pseudomonas aeruginosa 2A9 tracheal isolates from mechanically ventilated tuberculosis patient
[16] = system: Pseudomonas aeruginosa; assay: Antimicrobial activity against Pseudomonas aeruginosa 65.33-2 tracheal isolates from mechanically ventilated tuberculosis patient
[17] = system: Pseudomonas aeruginosa; assay: Antimicrobial activity against Pseudomonas aeruginosa 19E2 tracheal isolates from mechanically ventilated chronic respiratory insufficiency patient
[18] = system: Pseudomonas aeruginosa; assay: Antimicrobial activity against Pseudomonas aeruginosa 3D1 tracheal isolates from mechanically ventilated chronic respiratory insufficiency patient
[19] = system: Pseudomonas aeruginosa; assay: Antimicrobial activity against Pseudomonas aeruginosa P21.23 tracheal isolates from mechanically ventilated tuberculosis patient
[20] = system: Pseudomonas aeruginosa; assay: Antimicrobial activity against Pseudomonas aeruginosa 2A3 tracheal isolates from mechanically ventilated tuberculosis patient
[21] = system: Pseudomonas aeruginosa; assay: Antimicrobial activity against Pseudomonas aeruginosa 19B6 tracheal isolates from mechanically ventilated chronic respiratory insufficiency patient
[22] = system: Pseudomonas aeruginosa; assay: Antimicrobial activity against Pseudomonas aeruginosa 15G2 tracheal isolates from mechanically ventilated chronic respiratory insufficiency patient
[23] = system: Pseudomonas aeruginosa; assay: Antimicrobial activity against Pseudomonas aeruginosa 1B9 tracheal isolates from mechanically ventilated tuberculosis patient
[24] = system: Pseudomonas aeruginosa; assay: Antimicrobial activity against Pseudomonas aeruginosa 5F2 tracheal isolates from mechanically ventilated chronic respiratory insufficiency patient
[25] = system: Pseudomonas aeruginosa; assay: Antimicrobial activity against Pseudomonas aeruginosa 8C4 tracheal isolates from mechanically ventilated chronic respiratory insufficiency patient
[26] = system: Pseudomonas aeruginosa; assay: Antimicrobial activity against Pseudomonas aeruginosa 29F6 tracheal isolates from mechanically ventilated chronic respiratory insufficiency patient
[27] = system: Pseudomonas aeruginosa; assay: Antimicrobial activity against Pseudomonas aeruginosa 5G3 tracheal isolates from mechanically ventilated chronic respiratory insufficiency patient
[28] = system: Pseudomonas aeruginosa; assay: Antimicrobial activity against Pseudomonas aeruginosa 9B5 tracheal isolates from mechanically ventilated chronic respiratory insufficiency patient
[29] = system: Pseudomonas aeruginosa; assay: Antimicrobial activity against Pseudomonas aeruginosa 65.68-4 tracheal isolates from mechanically ventilated tuberculosis patient
[30] = system: Pseudomonas aeruginosa; assay: Antimicrobial activity against Pseudomonas aeruginosa 65.33-4 tracheal isolates from mechanically ventilated tuberculosis patient
[31] = system: Pseudomonas aeruginosa; assay: Antimicrobial activity against Pseudomonas aeruginosa 12B2 tracheal isolates from mechanically ventilated chronic respiratory insufficiency patient
[32] = system: Pseudomonas aeruginosa; assay: Antimicrobial activity against Pseudomonas aeruginosa 19D9 tracheal isolates from mechanically ventilated chronic respiratory insufficiency patient
[33] = system: Pseudomonas aeruginosa; assay: Antimicrobial activity against Pseudomonas aeruginosa 10B3 tracheal isolates from mechanically ventilated chronic respiratory insufficiency patient
[34] = system: Pseudomonas aeruginosa; assay: Antimicrobial activity against Pseudomonas aeruginosa 22E3 tracheal isolates from mechanically ventilated chronic respiratory insufficiency patient
[35] = system: Pseudomonas aeruginosa; assay: Antimicrobial activity against Pseudomonas aeruginosa 3D10 tracheal isolates from mechanically ventilated chronic respiratory insufficiency patient
[36] = system: Pseudomonas aeruginosa; assay: Antimicrobial activity against Pseudomonas aeruginosa 9A10 tracheal isolates from mechanically ventilated chronic respiratory insufficiency patient
[37] = system: Pseudomonas aeruginosa; assay: Antimicrobial activity against Pseudomonas aeruginosa 10B1 tracheal isolates from mechanically ventilated chronic respiratory insufficiency patient
[38] = system: Pseudomonas aeruginosa; assay: Antimicrobial activity against Pseudomonas aeruginosa 9A7 tracheal isolates from mechanically ventilated chronic respiratory insufficiency patient
[39] = system: Pseudomonas aeruginosa; assay: Antimicrobial activity against Pseudomonas aeruginosa 12A7 tracheal isolates from mechanically ventilated chronic respiratory insufficiency patient
[40] = system: Pseudomonas aeruginosa; assay: Antimicrobial activity against Pseudomonas aeruginosa 19B3 tracheal isolates from mechanically ventilated chronic respiratory insufficiency patient
[41] = system: Pseudomonas aeruginosa; assay: Antimicrobial activity against Pseudomonas aeruginosa 5H6 tracheal isolates from mechanically ventilated chronic respiratory insufficiency patient
[42] = system: Pseudomonas aeruginosa; assay: Antimicrobial activity against Pseudomonas aeruginosa 65.18-4 tracheal isolates from mechanically ventilated tuberculosis patient
[43] = system: Pseudomonas aeruginosa; assay: Antimicrobial activity against Pseudomonas aeruginosa 65.36-3 tracheal isolates from mechanically ventilated tuberculosis patient
[44] = system: Pseudomonas aeruginosa; assay: Antimicrobial activity against Pseudomonas aeruginosa P21.21 tracheal isolates from mechanically ventilated tuberculosis patient
[45] = system: Pseudomonas aeruginosa; assay: Antimicrobial activity against Pseudomonas aeruginosa 10A9 tracheal isolates from mechanically ventilated chronic respiratory insufficiency patient
[46] = system: Pseudomonas aeruginosa; assay: Antimicrobial activity against Pseudomonas aeruginosa 24G1 tracheal isolates from mechanically ventilated chronic respiratory insufficiency patient
[47] = system: Pseudomonas aeruginosa; assay: Antimicrobial activity against Pseudomonas aeruginosa 2A6 tracheal isolates from mechanically ventilated tuberculosis patient
[48] = system: Pseudomonas aeruginosa; assay: Antimicrobial activity against Pseudomonas aeruginosa 65.36-2 tracheal isolates from mechanically ventilated tuberculosis patient
[49] = system: Pseudomonas aeruginosa; assay: Antimicrobial activity against Pseudomonas aeruginosa 12A3 tracheal isolates from mechanically ventilated chronic respiratory insufficiency patient
[50] = system: Pseudomonas aeruginosa; assay: Antimicrobial activity against Pseudomonas aeruginosa 29G6 tracheal isolates from mechanically ventilated chronic respiratory insufficiency patient
[51] = system: Pseudomonas aeruginosa; assay: Antimicrobial activity against Pseudomonas aeruginosa 29G7 tracheal isolates from mechanically ventilated chronic respiratory insufficiency patient
[52] = system: Pseudomonas aeruginosa; assay: Antimicrobial activity against Pseudomonas aeruginosa 65.68-1 tracheal isolates from mechanically ventilated tuberculosis patient
[53] = system: Pseudomonas aeruginosa; assay: Antimicrobial activity against Pseudomonas aeruginosa 2F6 tracheal isolates from mechanically ventilated tuberculosis patient
[54] = system: Pseudomonas aeruginosa; assay: Antimicrobial activity against Pseudomonas aeruginosa 65.68-3 tracheal isolates from mechanically ventilated tuberculosis patient
[55] = system: Pseudomonas aeruginosa; assay: Antimicrobial activity against Pseudomonas aeruginosa 65.36-1 tracheal isolates from mechanically ventilated tuberculosis patient
[56] = system: Pseudomonas aeruginosa; assay: Antimicrobial activity against Pseudomonas aeruginosa 2A2 tracheal isolates from mechanically ventilated tuberculosis patient
[57] = system: Pseudomonas aeruginosa; assay: Antimicrobial activity against Pseudomonas aeruginosa 13E1 tracheal isolates from mechanically ventilated chronic respiratory insufficiency patient
[58] = system: Pseudomonas aeruginosa; assay: Antimicrobial activity against Pseudomonas aeruginosa 3B1 tracheal isolates from mechanically ventilated tuberculosis patient
[59] = system: Pseudomonas aeruginosa; assay: Antimicrobial activity against Pseudomonas aeruginosa 65.38-3 tracheal isolates from mechanically ventilated tuberculosis patient

SMILES: CC(C)(O/N=C(\C(=O)N[C@@H]1C(=O)N2C(C(=O)[O-])=C(C[n+]3ccccc3)CS[C@H]12)c1csc(N)n1)C(=O)O
- Activity [1]: Active
- Activity [2]: inactive
- Activity [3]: Active
- Activity [4]: Active
- Activity [5]: Active
- Activity [6]: Active
- Activity [7]: Active
- Activity [8]: Active
- Activity [9]: Active
- Activity [10]: Active
- Activity [11]: Active
- Activity [12]: Active
- Activity [13]: Active
- Activity [14]: Active
- Activity [15]: inactive
- Activity [16]: Active
- Activity [17]: Active
- Activity [18]: Active
- Activity [19]: Active
- Activity [20]: Active
- Activity [21]: Active
- Activity [22]: Active
- Activity [23]: inactive
- Activity [24]: Active
- Activity [25]: Active
- Activity [26]: Active
- Activity [27]: Active
- Activity [28]: Active
- Activity [29]: Active
- Activity [30]: Active
- Activity [31]: Active
- Activity [32]: Active
- Activity [33]: Active
- Activity [34]: Active
- Activity [35]: Active
- Activity [36]: Active
- Activity [37]: Active
- Activity [38]: Active
- Activity [39]: Active
- Activity [40]: Active
- Activity [41]: Active
- Activity [42]: Active
- Activity [43]: Active
- Activity [44]: Active
- Activity [45]: Active
- Activity [46]: Active
- Activity [47]: inactive
- Activity [48]: Active
- Activity [49]: Active
- Activity [50]: Active
- Activity [51]: Active
- Activity [52]: Active
- Activity [53]: inactive
- Activity [54]: Active
- Activity [55]: Active
- Activity [56]: Active
- Activity [57]: Active
- Activity [58]: Active
- Activity [59]: inactive
